Reference: US20130123208A1, “METHOD OF TREATING MULTIPLE SCLEROSIS WITH ADENOSINE RECEPTOR AGONISTS” (THE REGENTS OF THE UNIVERSITY OF COLORADO, a body …, priority 2010, published 2013)
Entries after “also recorded” stand apart in the source; their conditions may differ.

What was measured:
[1] = tested on: rats with EAE (MOG-induced Experimental Autoimmune Encephalitis); test: EAE model, motor score after single intrathecal bolus
Method: The EAE model described above was used. Motor score was assessed three days before and daily post MOG administration (8.25 ug intradermally). At the onset of motor symptoms (partial tail paralysis, motor score 1) rats were randomly injected with an A2A agonist, CGS21680 (3-[4-[2-[[6-amino-9-[(2R,3R,4S,5S)-5-(ethylcarbamoyl)-3,4-dihydroxy-oxolan-2-yl]purin-2-yl]amino]ethyl]phenyl]propanoic acid) (10 μM) or vehicle.

rat spines (EAE) = test: FLAIR and T2-weighted MRI on rat spines in EAE; assay type: in vivo; conditions: ATL313 treated animals with preserved motor scores
Method: ATL313 (4-{3-[6-amino-9-(5-cyclopropylcarbamoyl-3,4-dihydroxy-tetrahydro-furan-2-yl)-9H-purin-2-yl]-prop-2-ynyl}-piperidine-1-carboxylic acid methyl ester) (single bolus 1 μM-not shown and 10 μM) was used in the EAE model as described above (8-9 rats/group). The change in motor symptoms and the survival curve for ATL313 (10 μM) are shown in FIGS. 4A and 4B, respectively. 1 μM ATL313 produced a reduction in motor score lasting approximately 10 days.

rats with EAE = test: EAE model, survival curve (time to motor score 6 or higher); assay type: in vivo, Male Dark Agouti rats
Excerpt: In a separate group of rats from Example 1, MOG was intradermally administered as described above. […] The time at which motor score reached 6 or higher after the onset of motor symptoms is represented on the survival curve shown in FIG. 2. […] A single intrathecal injection of an A2A agonist, CGS21680, improved survival percentage in rats with EAE.

neuropathic pain = conditions: duration of effect ~35 days; cited from earlier work
[2] = tested on: OX-42 (microglial activation marker); test: Immunohistochemistry of the dorsal spinal cord, OX-42; assay type: in vivo, rats; conditions: motor score 6 or higher or 24 days post onset, vs vehicle, P<0.05 (FIG. 3)
[3] = tested on: cd68 (classically activated macrophage marker); test: Immunohistochemistry of the dorsal spinal cord, cd68; assay type: in vivo, rats; conditions: motor score 6 or higher or 24 days post onset, vs vehicle, P<0.05 (FIG. 3)

SMILES	duration of attenuation of motor effects of EAE, at worst ([1]; 5 ng intrathecal single bolus) [days]	progression of motor impairment/dysfunction induced by EAE ([1]; 5 ng intrathecal single bolus at initial onset of motor impairment (FIG. 5A))	number of animals where motor deterioration is arrested with no further progression ([1]; 5 ng intrathecal, first group (FIG. 5B))	number of rats whose motor symptoms continued on the usual course at around day 35 ([1]; 5 ng intrathecal, second group (FIG. 5C))	duration of reduction in motor score ([1]; 1 μM single intrathecal bolus)	duration of arrest of progression of motor score symptoms ([1]; 10 μM single intrathecal injection (FIG. 4A)) [days]	duration of suppression of paralysis ([1]; FIG. 6 legend, other sub-group) [week]	paralysis ([1]; FIG. 6 legend, surviving ATL313 rats)	MRI abnormalities (hyperintensity) of spine (rat spines (EAE))	rats still alive (rats with EAE; 10 μM intrathecal, at 70 days, with stabilized motor scores (FIG. 4B))	survival rate (rats with EAE; 10 μM single intrathecal injection, MOG+ATL313 vs MOG+vehicle (FIG. 4B))	survival (rats with EAE; FIG. 6 legend)	neuropathic pain (neuropathic pain)	severity of motor symptoms (motor score) ([1]; 10 μM, single intrathecal injection at onset of motor symptoms, vs vehicle (FIG. 1))	percentage of survival (rats with EAE; 10 μM intrathecal at onset of motor symptoms, day 25, vs vehicle, P<0.05 (FIG. 2))	OX-42 staining [2]	cd68 staining [3]
COC(=O)N1CCC(CC#Cc2nc(N)c3ncn([C@@H]4O[C@H](C(=O)NC5CC5)C(O)C4O)c3n2)CC1 (stereo in doubt) [ATL313, 4-{3-[6-amino-9-(5-cyclopropylcarbamoyl-3,4-dihydroxy-tetrahydro-furan-2-yl)-9H-purin-2-yl]-prop-2-ynyl}-piperidine-1-carboxylic acid methyl ester]	~35	good attenuation of progression of motor impairment/dysfunction	6	3	approximately 10 days	> 80	~4	arrests paralysis in every surviving ATL313 rat	only minimal abnormalities	6/9	increased survival rate	markedly enhances survival	attenuates neuropathic pain				
CCNC(=O)[C@H]1O[C@@H](n2cnc3c(N)nc(NCCc4ccc(CCC(=O)O)cc4)nc32)[C@H](O)[C@@H]1O [CGS21680, 3-[4-[2-[[6-amino-9-[(2R,3R,4S,5S)-5-(ethylcarbamoyl)-3,4-dihydroxy-oxolan-2-yl]purin-2-yl]amino]ethyl]phenyl]propanoic acid, reference compound]														reduced the severity of motor symptoms; also recorded: attenuated motor symptoms	significant difference in percentage of survival	significant reduction	significant reduction
